Reference: patent US12583851B2, “Heteroaryl-substituted pyrazine derivatives as pesticides” (Elanco Animal Health GmbH, priority 2019, dated 2026)

Columns and labels:
Type in all cases: in vivo
[1] = system: fall armyworm larvae (Spodoptera frugiperda); experiment: Spodoptera frugiperda spray test; settings: 168 h, maize leaf sections, after 7 days
How it was run: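 Compound dissolved in acetone/dimethylformamide, diluted in water containing 1000 ppm alkylarylpolyglycol ether emulsifier and sprayed onto maize leaf sections. Dried sections were infested with larvae; % mortality scored after 7 days (100% = all caterpillars killed, 0% = none).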

[2] = system: green peach aphid (Myzus persicae); experiment: Myzus persicae spray test; settings: foliar, 120 h, Chinese cabbage leaf disks, after 5 days
Procedure: Myzus persicae—Spray Test
Solvent: 78.0 parts by weight acetone • 1.5 parts by weight dimethylformamide
(§1) Emulsifier: alkylarylpolyglycol ether
(§2) To produce a suitable preparation of active compound, 1 part by weight of active compound is mixed with the stated amount of solvents and is diluted with water, containing an emulsifier concentration of 1000 ppm, to the desired concentration. Further test concentrations are prepared by dilution with emulsifier containing water.
Chinese cabbage (Brassica pekinensis) leaf disks infected with all instars of the green peach aphid (Myzus persicae), are sprayed with a preparation of the active ingredient of the desired concentration.
After 5 days mortality in % is determined. 100% means all aphids have been killed and 0% means none of the aphids have been killed.

[3] = system: adult cat fleas (Ctenocephalides felis); experiment: Ctenocephalides felis in-vitro contact test, adult cat flea; settings: after 48 hours, read-out: efficacy (fleas dead or moribund); for pest or weed control at 1 µg/cm2, 100 g/ha: 1 μg/cm^2 (=100 g/ha); for pest or weed control at 5 µg/cm2, 500 g/ha: 5 μg/cm^2 (=500 g/ha)
How it was run: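 Acetone solution coated onto glass tube walls; 900 ppm gives 5 μg/cm². Once dry, 5–10 adult fleas per tube held at room temperature for 48 h. Efficacy (%) is the share of fleas dead or moribund, i.e. unable to climb away on a 45–50° C heating plate.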

[4] = system: larvae of the banded cucumber beetle (Diabrotica balteata); experiment: Diabrotica balteata spray test; settings: 168 h, after 7 days, read-out: efficacy (seedling growth); for pest or weed control at 6.4 µg/disc, 20 g/ha: 20 g/ha (=6.4 μg/well); for pest or weed control at 32 µg/disc, 100 g/ha: 100 g/ha (=32 μg/well)
How it was run: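 Germinated wheat seedlings (5 per well, on agar) sprayed with compound in acetone/DMF with emulsifier-containing water, then infested with 10–20 Diabrotica balteata larvae. Efficacy (%) scored after 7 days from seedling growth: 100% = growth as untreated uninfested control, 0% = no seedlings grown.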

[5] = system: larvae of the southern green stink bug (Nezara viridula); experiment: Nezara viridula spray test; settings: 96 h, 500 g/ha, barley plants, after 4 days
Procedure: Nezara viridula—Spray Test
(§3) Solvent: 78.0 parts by weight of acetone • • 1.5 parts by weight of dimethylformamide
as §1
as §2, with “solvent,” for “solvents”, “and the concentrate” for “and”
Barley plants (Hordeum vulgare) infested with larvae of the southern green stink bug (Nezara viridula) are sprayed with a test solution containing the desired concentration of the active ingredient.
After 4 days mortality in % is determined. 100% means all the stink bugs have been killed; 0% means none of the stink bugs have been killed.

[6] = system: brown planthopper (Nilaparvata lugens); experiment: Nilaparvata lugens spray test; settings: 96 h, 500 g/ha, rice plants, after 4 days
Procedure: Nilaparvata lugens—Spray Test
as §3, §1, §2
Rice plants (Oryza sativa) are sprayed with a preparation of the active ingredient of the desired concentration and the plants are infested with the brown planthopper (Nilaparvata lugens).
After 4 days mortality in % is determined. 100% means all planthoppers have been killed and 0% means none of the planthoppers have been killed.

[7] = system: adult brown dog ticks (Rhipicephalus sanguineus); experiment: Rhipicephalus sanguineus in-vitro contact test, adult brown dog ticks; settings: 48 h, after 48 hours, read-out: efficacy (ticks dead or moribund); for pest or weed control at 1 µg/cm2, 100 g/ha: 1 μg/cm^2 (=100 g/ha); for pest or weed control at 5 µg/cm2, 500 g/ha: 5 μg/cm^2 (=500 g/ha)
How it was run: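 Acetone solution coated on glass tube inner walls (900 ppm, giving 5 μg/cm^2); after drying, 5–10 adult ticks added and kept 48 h at room temperature. Efficacy scored as percent dead or moribund, i.e., ticks unable to climb away on a 45–50 °C heating plate within 5 min.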

[8] = system: Rhipicephalus (Boophilus) microplus larvae (strain Parkhurst, resistant against synthetic pyrethroids); experiment: Rhipicephalus (Boophilus) microplus in-vitro contact test, larval cattle tick; settings: after 48 hours, read-out: efficacy (larvae dead or moribund); for pest or weed control at 1 µg/cm2, 100 g/ha: 1 μg/cm^2 (=100 g/ha); for pest or weed control at 5 µg/cm2, 500 g/ha: 5 μg/cm^2 (=500 g/ha)
How it was run: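 Acetone solutions were coated onto glass tube walls (900 ppm gives 5 μg/cm²); after drying, 20–50 pyrethroid-resistant Parkhurst larvae added and held at 27 °C, 85% RH. At 48 h, efficacy as % larvae dead or moribund, judged by loss of negative geotaxis.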

[9] = system: southern root-knot nematode (Meloidogyne incognita); experiment: Meloidogyne incognita test; settings: 20 ppm, after 14 days
Procedure: Meloidogyne incognita—Test
Solvent: 125.0 parts by weight of acetone
To produce a suitable preparation of active compound, 1 part by weight of active compound is mixed with the stated amount of solvent, and the concentrate is diluted with water to the desired concentration.
Vessels are filled with sand, a solution of the active ingredient, a suspension containing eggs and larvae of the southern root-knot nematode (Meloidogyne incognita) and salad seeds. The salad seeds germinate and the seedlings grow. Galls develop in the roots.
After 14 days the nematicidal activity is determined based on the percentage of gall formation. 100% means no galls were found and 0% means the number of galls found on the roots of the treated plants was equal to that in untreated control plants.

| SMILES | mortality at 100 g/ha [1] [%] | mortality at 100 g/ha [2] [%] | pest or weed control at 1 µg/cm2, 100 g/ha [3] [%] | pest or weed control at 5 µg/cm2, 500 g/ha [3] [%] | pest or weed control at 6.4 µg/disc, 20 g/ha [4] [%] | pest or weed control at 32 µg/disc, 100 g/ha [4] [%] | mortality at 500 g/ha [5] [%] | mortality at 500 g/ha [6] [%] | pest or weed control at 1 µg/cm2, 100 g/ha [7] [%] | pest or weed control at 5 µg/cm2, 500 g/ha [7] [%] | pest or weed control at 1 µg/cm2, 100 g/ha [8] [%] | pest or weed control at 5 µg/cm2, 500 g/ha [8] [%] | nematicidal activity (based on gall formation) [9] [%] |
| --- | --- | --- | --- | --- | --- | --- | --- | --- | --- | --- | --- | --- | --- |
| CCN(CC)C(=O)c1ccc(-c2nccnc2C(C)NC(=O)c2cc(C(F)(F)F)cc(C(F)(F)F)c2)nc1 (single isomer, unassigned) [Example I-160, 6-(3-{1-[3,5-Bis(trifluoromethyl)benzamido]ethyl}pyrazin-2-yl)-N,N-diethylpyridine-3-carboxamide] | 100 | 90 | – | – | – | – | – | – | – | – | – | – | – |
| CC(NC(=O)c1cc(Br)cc(OC(F)(F)F)c1)c1nccnc1-n1cc(C(=O)N(C)CC2CC2)cn1 (racemic) [Example I-134, (rac)-1-(3-{1-[3-Bromo-5-(trifluoromethoxy)benzamido]ethyl}pyrazin-2-yl)-N-(cyclopropylmethyl)-N-methyl-1H-pyrazole-4-carboxamide] | 100 | – | 80 | 100 | 100 | 100 | 100 | 100 | 100 | 100 | 100 | 100 | – |
| CC(NC(=O)c1cc(C(F)(F)F)cc(C(F)(F)F)c1)c1nccnc1-n1cc(C(=O)N(C)C)cn1 (racemic) [Example I-88, (rac)-1-(3-{1-[3,5-Bis(trifluoromethyl)benzamido]ethyl}pyrazin-2-yl)-N,N-dimethyl-1H-pyrazole-4-carboxamide] | 100 | 90 | – | – | 100 | 100 | – | – | – | – | 100 | 100 | – |
| CCN(C)C(=O)c1cnc(-c2nccnc2C(C)N(CC2CC2)C(=O)c2cc(C(F)(F)F)cc(C(F)(F)F)c2)s1 (racemic) [Example I-83, (rac)-2-{3-[1-{[3,5-Bis(trifluoromethyl)benzoyl](cyclopropylmethyl)amino}ethyl]pyrazin-2-yl}-N-ethyl-N-methyl-1,3-thiazole-5-carboxamide] | 100 | – | 100 | 100 | 100 | 100 | 100 | 100 | – | 80 | 100 | 100 | – |
| CC(NC(=O)c1cc(C(F)(F)F)cc(C(F)(F)F)c1)c1nccnc1-c1ccc(C(=O)N(C)CC2CC2)cn1 (single isomer, unassigned) [Example I-164, 6-(3-{1-[3,5-Bis(trifluoromethyl)benzamido]ethyl}pyrazin-2-yl)-N-(cyclopropylmethyl)-N-methylpyridine-3-carboxamide] | 100 | 90 | – | – | – | – | – | – | – | – | – | – | – |
| CC(NC(=O)c1cc(OC(F)(F)F)cc(S(C)(=O)=O)c1)c1nccnc1-c1ncc(C(=O)N(C)CC2CC2)s1 (racemic) [Example I-140, (rac)-N-(Cyclopropylmethyl)-2-(3-{1-[3-(methanesulfonyl)-5-(trifluoromethoxy)benzamido]ethyl}pyrazin-2-yl)-N-methyl-1,3-thiazole-5-carboxamide] | 100 | – | – | 90 | – | – | – | 100 | – | – | – | – | – |
| CC(NC(=O)c1cc(C(F)(F)F)cc(C(F)(F)F)c1)c1nccnc1-c1ccc(C(=O)N(C)C)cn1 (racemic) [Example I-38, (rac)-6-(3-{1-[3,5-Bis(trifluoromethyl)benzamido]ethyl}pyrazin-2-yl)-N,N-dimethylpyridine-3-carboxamide] | 100 | 90 | 90 | – | – | – | – | – | – | – | 100 | 100 | – |
| CC(NC(=O)c1cc(Cl)cc(OC(F)(F)F)c1)c1nccnc1-c1nccs1 (racemic) [Example I-52, (rac)-3-Chloro-N-{1-[3-(1,3-thiazol-2-yl)pyrazin-2-yl]ethyl}-5-(trifluoromethoxy)benzamide] | – | – | – | – | 100 | 100 | – | – | – | – | – | – | 90 |
| CC(NC(=O)c1cc(Cl)cc(C(F)(F)F)c1)c1nccnc1-n1cc(C(=O)N(C)CC2CC2)cn1 (racemic) [Example I-132, (rac)-1-(3-{1-[3-Chloro-5-(trifluoromethyl)benzamido]ethyl}pyrazin-2-yl)-N-(cyclopropylmethyl)-N-methyl-1H-pyrazole-4-carboxamide] | 100 | – | 100 | 100 | 100 | 100 | 100 | 100 | 100 | 100 | 100 | 100 | – |
| CC(NC(=O)c1cc(C(F)(F)F)cc(C(F)(F)F)c1)c1nccnc1-c1ccc(C(=O)N2C[C@@H](C)O[C@@H](C)C2)cn1 (single isomer, unassigned) [Example I-166, N-[1-(3-{5-[(cis)-2,6-Dimethylmorpholine-4-carbonyl]pyridin-2-yl}pyrazin-2-yl)ethyl]-3,5-bis(trifluoromethyl)benzamide] | 100 | 90 | – | – | – | – | – | – | – | – | – | – | – |
| COc1ccc(-c2nccnc2C(C)NC(=O)c2cc(Cl)cc(OC(F)(F)F)c2)nc1 (stereo not shown) [Example I-28] | – | 90 | – | – | 100 | 80 | – | – | – | – | 90 | 80 | – |
| CC(NC(=O)c1cc(C(F)F)cc(C(F)F)c1)c1nccnc1-c1ncc(C(=O)N(C)CC2CC2)s1 (racemic) [Example I-141, (rac)-2-(3-{1-[3,5-Bis(difluoromethyl)benzamido]ethyl}pyrazin-2-yl)-N-(cyclopropylmethyl)-N-methyl-1,3-thiazole-5-carboxamide] | 100 | – | – | 100 | – | 100 | 100 | 100 | – | – | 100 | 90 | – |
